The numbers were not newly measured in patent US7402581B2, “Azetidine compounds” (Albireo AB, priority 2003, dated 2008), which cites them from elsewhere.

The data set addresses T1, Human Neurokinin-2 (NK2) Receptor (Homo sapiens, UniProt P21452).
T1 sequence (P21452 1-398): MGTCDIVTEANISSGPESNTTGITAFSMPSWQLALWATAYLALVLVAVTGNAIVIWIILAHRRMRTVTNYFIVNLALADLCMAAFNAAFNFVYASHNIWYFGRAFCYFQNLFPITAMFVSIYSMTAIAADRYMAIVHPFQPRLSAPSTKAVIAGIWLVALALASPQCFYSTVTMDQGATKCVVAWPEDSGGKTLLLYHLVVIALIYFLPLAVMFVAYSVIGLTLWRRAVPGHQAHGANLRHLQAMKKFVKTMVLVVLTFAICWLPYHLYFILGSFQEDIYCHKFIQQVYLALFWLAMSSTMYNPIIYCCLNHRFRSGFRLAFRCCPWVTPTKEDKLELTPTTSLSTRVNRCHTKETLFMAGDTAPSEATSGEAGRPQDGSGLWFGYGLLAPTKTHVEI
As to conditions: reported in Bioorganic & Medicinal Chemistry Letters 2003.

In the case of `CN(CC(CCN1CC(N2CCOCC2)C1)c1ccc(Cl)c(Cl)c1)C(=O)c1ccccc1` (stereo not shown) [N-[2-(3,4-dichlorophenyl)-4-(3-morpholin-4-ylazetidin-1-yl)butyl]-N-methylbenzamide], the “functional NK2 receptor antagonistic properties” value is on record as “functional NK2 receptor antagonistic properties”.
